Among the test systems are MOLT-4; SW-620; HOP-92; HL-60; Hs-578T; SK-MEL-5; A498; NCI-H460; MDA-MB-231; OVCAR-3; HCT-15; RPMI-8226; U-251; MCF7; COLO 205; NCI-H522; SK-MEL-2; RXF 393; UACC-62.
Common to all, as to test: NCI anticancer screen, dose series, 48 h

Experimental findings from ChEMBL document CHEMBL1201862, “PubChem BioAssay data set” (2004) are described below.

SMILES strings stand for the structures.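 48-hour exposure; five concentrations; linearly interpolated endpoints. The concentration for 50% growth inhibition is given as GI50.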 The source made the active and inactive calls. Rule as the data show it: active = GI50 up to about 1.1 µM and inactive = higher.

As for `O=C(Nc1ccccc1)c1cc(S(=O)(=O)Nc2n[nH]c(=O)[nH]2)c(SSc2cc(Cl)c(C(=O)Nc3ccccc3)cc2S(=O)(=O)Nc2n[nH]c(=O)[nH]2)cc1Cl`, the GI50 in the experiment with MOLT-4, in the experiment with SW-620, with HOP-92, with HL-60, in the experiment on Hs-578T and in the experiment on SK-MEL-5 was > 100 µM (inactive) throughout. Moreover, the GI50 was > 100 µM (inactive) with A498; > 100 µM (inactive) in the experiment with NCI-H460; > 100 µM (inactive) in the experiment on MDA-MB-231; > 100 µM (inactive) in the experiment with OVCAR-3; > 100 µM with HCT-15; > 100 µM (inactive) in the experiment with RPMI-8226. Also, the GI50 in the experiment on U-251, in the experiment on MCF7, in the experiment on COLO 205, in the experiment with NCI-H522 and with SK-MEL-2 was > 100 µM (inactive) throughout.
Consider `C[C@H](O)C1CC(Cn2nnc3c(N)ncnc32)C1(C)C` (some centres not stated), for which the GI50 in the experiment on SW-620, in the experiment with HOP-92, in the experiment with Hs-578T, in the experiment on SK-MEL-5, with RXF 393 and in the experiment on A498 was > 100 µM (inactive) each time. The GI50 in the experiment with MDA-MB-231 is > 100 µM (inactive); in the experiment with OVCAR-3, > 100 µM (inactive); in the experiment with HCT-15, > 100 µM; in the experiment on U-251 it was > 100 µM (inactive); in the experiment on UACC-62, 5.36 µM (inactive); with MCF7 it was > 100 µM (inactive). The GI50 with SK-MEL-2 is > 100 µM (inactive).
For `CCOP(=O)(OCC)/C(C#N)=C/c1nccn1C`, the GI50 with MOLT-4 was > 100 µM (inactive); in the experiment on SW-620 it was > 100 µM (inactive); with HOP-92 it was 63 µM (inactive); in the experiment with HL-60, > 100 µM (inactive); in the experiment with Hs-578T, > 100 µM (inactive); in the experiment on A498, > 100 µM (inactive). For the same molecule, the GI50 was > 100 µM (inactive) with NCI-H460; > 100 µM (inactive) in the experiment with MDA-MB-231; > 100 µM (inactive) with OVCAR-3; > 100 µM in the experiment with HCT-15; > 100 µM (inactive) in the experiment with RPMI-8226; > 100 µM (inactive) in the experiment with U-251. Besides, the GI50 in the experiment with MCF7, with COLO 205, in the experiment with NCI-H522 and with SK-MEL-2 was > 100 µM (inactive) each time.
Turning to `CCCCC/C=C1\CC(CO)(COC(=O)CC(C(C)C)C(C)C)OC1=O` (configuration not stated), the GI50 was 15.2 µM (inactive) in the experiment with MOLT-4; 29.3 µM (inactive) in the experiment with SW-620; 3.66 µM (inactive) in the experiment on HOP-92; 4.62 µM (inactive) in the experiment with Hs-578T; 11 µM (inactive) in the experiment with SK-MEL-5; 17.9 µM (inactive) with RXF 393. The GI50 in the experiment on A498 was 15.8 µM (inactive); in the experiment on NCI-H460, 16.4 µM (inactive); with MDA-MB-231 it was 17.9 µM (inactive); in the experiment on OVCAR-3, 17.5 µM (inactive); in the experiment on HCT-15, 19.9 µM; in the experiment with U-251, 14.5 µM (inactive). Further, the GI50 in the experiment on UACC-62 was 19.4 µM (inactive); with MCF7, 21.6 µM (inactive); with COLO 205, 3.04 µM (inactive); in the experiment with NCI-H522, 17.8 µM (inactive); in the experiment on SK-MEL-2, 20.3 µM (inactive).
Turning to `COc1cc2c3cc1Oc1c(OC)c(OC)cc4c1C(Cc1ccc(O)c(c1)Oc1ccc(cc1)CC3N(C)CC2)N(C)CC4` (configuration not stated), the GI50 with MOLT-4 was 44.4 µM (inactive); in the experiment on SW-620 it was 69.8 µM (inactive); with HOP-92 it was 26.2 µM (inactive); in the experiment with HL-60, 28.3 µM (inactive); in the experiment with Hs-578T it was 24.2 µM (inactive); with SK-MEL-5 it was 20 µM (inactive). Further, the GI50 is 23.7 µM (inactive) in the experiment with A498; 15.7 µM (inactive) in the experiment on NCI-H460; 35.6 µM (inactive) with MDA-MB-231; 16.1 µM in the experiment on HCT-15; 21.4 µM (inactive) with U-251; 44.6 µM (inactive) in the experiment with UACC-62. The GI50 with MCF7 is 45.9 µM (inactive); in the experiment with COLO 205 it was 32 µM (inactive); with NCI-H522, 31.5 µM (inactive); with SK-MEL-2, 28.8 µM (inactive).
`COc1cc(-c2oc3c(OC)c(O)c(OC)c(O)c3c(=O)c2OC)ccc1O`: the GI50 in the experiment on MOLT-4 was 95.5 µM (inactive); in the experiment on SW-620, 94.4 µM (inactive); in the experiment with HL-60, 33.5 µM (inactive); with Hs-578T, 14.9 µM (inactive); with SK-MEL-5 it was 29.8 µM (inactive); with A498 it was 37.3 µM (inactive). Besides, the GI50 in the experiment with NCI-H460 was 46.1 µM (inactive); in the experiment on MDA-MB-231, 44.2 µM (inactive); in the experiment with OVCAR-3, 24.3 µM (inactive); in the experiment on HCT-15, 28.8 µM; in the experiment with RPMI-8226, 26.1 µM (inactive); in the experiment on U-251, 26.4 µM (inactive). The GI50 is 20.7 µM (inactive) in the experiment on UACC-62; 28.9 µM (inactive) in the experiment with MCF7; > 100 µM (inactive) in the experiment with COLO 205; 29.1 µM (inactive) in the experiment on NCI-H522; 24.8 µM (inactive) in the experiment with SK-MEL-2.
Regarding `Cc1cc2nc3c(N)nn(CCCN(C)C)c3nc2cc1C`, the GI50 with SW-620 is 56.9 µM (inactive); with Hs-578T it was > 100 µM (inactive); in the experiment on SK-MEL-5 it was > 100 µM (inactive); with RXF 393, > 100 µM (inactive); with A498, > 100 µM (inactive); with NCI-H460 it was 80.5 µM (inactive). The GI50 in the experiment with MDA-MB-231 was 60.5 µM (inactive); in the experiment on OVCAR-3, > 100 µM (inactive); in the experiment with HCT-15, > 100 µM; in the experiment with RPMI-8226, > 100 µM (inactive); with U-251 it was 71.9 µM (inactive); in the experiment with UACC-62 it was 95.7 µM (inactive). The GI50 with MCF7 was 33.4 µM (inactive); in the experiment on COLO 205 it was 55 µM (inactive).
In the case of `CC(NC(=O)C(CC(=O)OCc1ccccc1)NC(=O)OCc1ccccc1)c1ccccc1` (configuration not stated), the GI50 with MOLT-4 is > 100 µM (inactive); in the experiment on SW-620, > 100 µM (inactive); in the experiment on Hs-578T, > 100 µM (inactive); in the experiment with SK-MEL-5 it was > 100 µM (inactive); in the experiment on RXF 393 it was 19.2 µM (inactive); in the experiment with NCI-H460 it was > 100 µM (inactive). Further, the GI50 in the experiment with MDA-MB-231 was 79.3 µM (inactive); in the experiment on OVCAR-3 it was > 100 µM (inactive); in the experiment with HCT-15 it was > 100 µM; in the experiment with RPMI-8226, > 100 µM (inactive); in the experiment on U-251 it was > 100 µM (inactive); in the experiment on UACC-62, 37.8 µM (inactive). The GI50 in the experiment with MCF7 is > 100 µM (inactive); with COLO 205, > 100 µM (inactive); in the experiment on NCI-H522 it was 37.4 µM (inactive); in the experiment with SK-MEL-2 it was > 100 µM (inactive).
Regarding `O=C1CSC(c2cccc(Cl)c2)N1c1ccc(-n2c(-c3ccccc3)nc3ccccc3c2=O)cc1` (configuration not stated), the GI50 with MOLT-4 was 5.47 µM (inactive); with SW-620, > 100 µM (inactive); in the experiment on HOP-92, 2.69 µM (inactive); in the experiment on HL-60, > 100 µM (inactive); with Hs-578T, 39.3 µM (inactive); in the experiment with SK-MEL-5, 47 µM (inactive). In addition, the GI50 in the experiment with A498 is 94.8 µM (inactive); in the experiment with NCI-H460 it was 39.1 µM (inactive); in the experiment on MDA-MB-231 it was 21.1 µM (inactive); in the experiment on OVCAR-3, > 100 µM (inactive); in the experiment on HCT-15 it was 15.8 µM; in the experiment on RPMI-8226 it was 52.4 µM (inactive). Further, the GI50 was 29 µM (inactive) with U-251; 21.4 µM (inactive) in the experiment with UACC-62; 30.3 µM (inactive) in the experiment with MCF7; > 100 µM (inactive) in the experiment on COLO 205; 43.3 µM (inactive) in the experiment on NCI-H522; > 100 µM (inactive) in the experiment with SK-MEL-2.
On to `CCN(CC)P(=O)(c1ccc2c(c1)OCCOCCOCCOCCO2)N(CC)CC`, for which the GI50 with MOLT-4, in the experiment on SW-620, with HL-60, in the experiment with Hs-578T, with SK-MEL-5 and in the experiment with A498 was > 100 µM (inactive) each time. In addition, the GI50 in the experiment on NCI-H460 is > 100 µM (inactive); with MDA-MB-231, > 100 µM (inactive); in the experiment with HCT-15, > 100 µM; with RPMI-8226, > 100 µM (inactive); in the experiment on UACC-62 it was > 100 µM (inactive); with MCF7 it was > 100 µM (inactive). Moreover, the GI50 in the experiment with COLO 205 and in the experiment with NCI-H522 was > 100 µM (inactive) in each case.
For `O=[As](O)(O)c1ccc(NCc2ccccc2)cc1`, the GI50 was > 100 µM (inactive) with MOLT-4; > 100 µM (inactive) with HOP-92; 58.9 µM (inactive) in the experiment with Hs-578T; > 100 µM (inactive) with SK-MEL-5; > 100 µM (inactive) in the experiment on RXF 393; > 100 µM (inactive) in the experiment with A498. In addition, the GI50 in the experiment on NCI-H460 was > 100 µM (inactive); in the experiment with MDA-MB-231 it was > 100 µM (inactive); in the experiment on OVCAR-3 it was > 100 µM (inactive); with HCT-15 it was > 100 µM; in the experiment on RPMI-8226, > 100 µM (inactive); in the experiment on U-251 it was > 100 µM (inactive). Moreover, the GI50 in the experiment on UACC-62 is > 100 µM (inactive); in the experiment on MCF7, > 100 µM (inactive); in the experiment with COLO 205, > 100 µM (inactive); in the experiment with NCI-H522 it was 76.9 µM (inactive); in the experiment with SK-MEL-2 it was > 100 µM (inactive).
Turning to `N#CC(C#N)=C1c2ccccc2C(=NN)c2ccccc21`, the GI50 in the experiment with MOLT-4 is > 100 µM (inactive); with SW-620, > 100 µM (inactive); in the experiment on HOP-92, > 100 µM (inactive); in the experiment with Hs-578T, 9.57 µM (inactive); in the experiment with SK-MEL-5, 14.8 µM (inactive); with RXF 393, 27.5 µM (inactive). The GI50 in the experiment on A498 was > 28.7 µM (inactive); in the experiment on MDA-MB-231, > 79.8 µM (inactive); with OVCAR-3 it was > 100 µM (inactive); with HCT-15 it was > 100 µM; in the experiment with RPMI-8226, > 100 µM (inactive); in the experiment with U-251 it was 37.3 µM (inactive). Further, the GI50 is > 43.5 µM (inactive) with UACC-62; > 100 µM (inactive) in the experiment on MCF7; > 100 µM (inactive) in the experiment on COLO 205; 3.58 µM (inactive) in the experiment on NCI-H522; > 100 µM (inactive) in the experiment with SK-MEL-2.
